From patent US5137811A, “Method for diagnosing periodontal diseases with a substrate specific for aminopeptidase activity of periodontopathic bacteria” (Sunstar Kabushiki Kaisha, priority 1986, dated 1992)
Where a SMILES comes first, the peptide text is derived from it. The star is where a group is joined. pNA = O=[N+]([O-])c1ccc(N*)cc1

Columns and labels:
Format in all cases: biochemical
[1] = test system: periodontopathic bacteria specific aminopeptidase activity; assay: Hydrolytic activity of saliva supernatant, substrates alone or in combination (Experiment 9); conditions: 37° C. for 4 hours, Table 9
Method: (§1) A saliva mixture was collected from a group consisting of ten healthy subjects and centrifuged to obtain a supernatant. Likewise, centrifuged supernatants were obtained from a group of ten subjects with adult periodontitis and a group of four localized juvenile periodontitis. The supernatant was used as a specimen and its hydrolytic activity was determined according to the same manner as described in Experiment 4 except that the reaction was carried out at 37° C. for 4 hours. As the substrates, there were used N-carbobenzoxy-valyl-glycyl-arginine-p-nitrophenol (CxVGR-pNP), N-carbobenzoxy-valyl-glycylarginine-4-methoxy-2-naphthylamide (CxVGR-4NA) and N-carbobenzoxy-valyl-glycyl-arginine-β-naphthylamide (CxVGR-βNA). Color was developed by using lN sodium hydroxide for CxVGR-pNP and Fast Blue BB for CxVGR-4NA and CxVGR-βNA.
According to the same manner as described in Experiment 7, hydrolytic activity was tested by using N-carbobenzoxy-valyl-glycyl-arginine-β-naphthylamide (CxVGR-βNA), N-benzoyl-arginyl-glycyl-phenylalanyl-proline-β-naphthylamide (BzRGFP-βNA), N-carbobenzoxy-valyl-glycylarginine-p-nitrophenol (CxVGR-pNP) and N-benzoyl-arginylglycyl-phenylalanyl-proline-p-nitrophenol (BzRGFP-pNP) alone or in combination as the substrates.

[2] = test system: periodontopathic bacteria specific aminopeptidase activity; assay: Hydrolytic activity of saliva supernatant (Experiment 7); conditions: 37° C. for 4 hours, Table 7
Method: Specimens of gingival crevicular fluid were collected with paper points from five subjects who were considered to be healthy from their clinical state, six subjects with gingivitis and six subjects with periodontitis. Each specimen was dispersed in Ringer's solution (1.5 ml), and the relative amount of spirochete to total bacteria: [formula] was determined with a phase contrast microscope. Further, the Ringer's solution (0.3 ml) was tested for hydrolytic activity using the substrate solution prepared in the same manner as described in Experiment 1. As substrates, there were used compounds of the formula [1], i.e., N-benzoylvalyl-glycyl-arginine-β-naphthylamide (BzVGR) and N-carbobenzoxy-valyl-glycyl-arginine-β-naphthylamide (CxVGR) were used.
as §1

[3] = test system: periodontopathic bacteria specific aminopeptidase activity; assay: Hydrolytic activity of saliva supernatant (Experiment 8); conditions: 37° C. for 4 hours, Table 8
Method: as §1
According to the same manner as described in Experiment 7, hydrolytic activity was tested by using lysylproline-p-nitroanilide (KP-pNA), lysyl-proline-4-methoxy-2-naphthylamide (KP-4NA) and lysyl-proline-β-naphthylamide (KP-βNA)as the substrates. Color was developed by using lN sodium hydroxide for KP-pNA and Fast Blue BB for KP-4-NA and KP-βNA.

[4] = Localized juvenile periodontitis subjects

N-carbobenzoxy-valyl-glycyl-arginine-p-nitrophenol [CxVGR-pNP]
hydrolytic activity ([1]; Adult Periodontitis subjects): 33.5 ± 11.5 nmol/mL | hydrolytic activity ([1]; Healthy subjects): 14.0 ± 7.9 nmol/mL | hydrolytic activity [1, 4]: 28.8 ± 9.1 nmol/mL | hydrolytic activity ([2]; Adult Periodontitis subjects): 34.0 ± 9.7 nmol/mL | hydrolytic activity ([2]; Healthy subjects): 17.0 ± 11.4 nmol/mL | hydrolytic activity [2, 4]: 32.5 ± 9.6 nmol/mL

N-benzoyl-arginylglycyl-phenylalanyl-proline-p-nitrophenol [BzRGFP-pNP]
hydrolytic activity ([1]; Adult Periodontitis subjects): 25.6 ± 8.4 nmol/mL | hydrolytic activity ([1]; Healthy subjects): 13.3 ± 4.9 nmol/mL | hydrolytic activity [1, 4]: 21.8 ± 7.8 nmol/mL

COc1cc(NC(=O)[C@H](CCCNC(=N)N)NC(=O)CNC(=O)[C@@H](NC(=O)OCc2ccccc2)C(C)C)cc2ccccc12 [CxVGR-4NA, N-carbobenzoxy-valyl-glycylarginine-4-methoxy-2-naphthylamide]
hydrolytic activity ([2]; Adult Periodontitis subjects): 34.6 ± 8.9 nmol/mL | hydrolytic activity ([2]; Healthy subjects): 18.0 ± 10.8 nmol/mL | hydrolytic activity [2, 4]: 32.3 ± 8.9 nmol/mL

COc1cc(NC(=O)[C@@H]2CCCN2C(=O)[C@@H](N)CCCCN)cc2ccccc12 [KP-4NA, lysyl-proline-4-methoxy-2-naphthylamide]
hydrolytic activity ([3]; Adult Periodontitis subjects): 35.5 ± 10.1 nmol/mL | hydrolytic activity ([3]; Healthy subjects): 16.0 ± 10.8 nmol/mL | hydrolytic activity [3, 4]: 32.3 ± 8.9 nmol/mL

NCCCC[C@H](N)C(=O)N1CCC[C@H]1C(=O)Nc1ccc([N+](=O)[O-])cc1 [KP-pNA, lysylproline-p-nitroanilide] (H-Lys-Pro-pNA)
hydrolytic activity ([3]; Adult Periodontitis subjects): 34.3 ± 9.8 nmol/mL | hydrolytic activity ([3]; Healthy subjects): 15.0 ± 9.4 nmol/mL | hydrolytic activity [3, 4]: 31.5 ± 9.7 nmol/mL
